Activity calls are given as the source filed them.

One test relates to Streptococcus. Nature of the test: GAS UMAA2166 growth inhibition – luminescence, BacTiterGlo, counter-screen for streptokinase expression inhibitor project, dose response (AID 1915).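 Further: potency for reduction of bacterial viability or growth.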 In kind it is functional, organism-based. A general note: The purpose of a counterscreen is to sort out artefacts and off-target activity.
The target in the next test is T1, Streptokinase A (Streptococcus pyogenes serotype M1, UniProt P10520).
T1 sequence (P10520 whole entry): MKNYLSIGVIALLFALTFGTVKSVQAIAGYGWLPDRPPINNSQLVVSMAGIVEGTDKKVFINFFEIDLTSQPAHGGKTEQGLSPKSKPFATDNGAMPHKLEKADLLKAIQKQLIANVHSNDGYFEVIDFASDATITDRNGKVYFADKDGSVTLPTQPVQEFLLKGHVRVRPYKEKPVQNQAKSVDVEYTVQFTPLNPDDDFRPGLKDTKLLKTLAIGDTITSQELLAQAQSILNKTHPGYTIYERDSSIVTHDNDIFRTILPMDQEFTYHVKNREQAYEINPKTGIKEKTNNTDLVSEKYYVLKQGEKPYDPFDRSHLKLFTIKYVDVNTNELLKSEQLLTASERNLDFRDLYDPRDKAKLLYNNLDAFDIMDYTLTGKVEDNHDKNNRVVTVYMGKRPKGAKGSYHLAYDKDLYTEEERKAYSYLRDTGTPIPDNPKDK
The test is described as follows: viability-normalized secreted streptokinase activity reduction – plasminogen activation absorbance, OD405, dose response (AID 1914).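 Further: secreted streptokinase activity via plasminogen activation per viability signal from cell pellet.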 In kind it is functional, Streptococcus pyogenes M1 GAS.

Test [1] addresses T2, Heat shock factor protein 1 (Mus musculus, UniProt P38532).
T2 sequence (P38532 whole entry): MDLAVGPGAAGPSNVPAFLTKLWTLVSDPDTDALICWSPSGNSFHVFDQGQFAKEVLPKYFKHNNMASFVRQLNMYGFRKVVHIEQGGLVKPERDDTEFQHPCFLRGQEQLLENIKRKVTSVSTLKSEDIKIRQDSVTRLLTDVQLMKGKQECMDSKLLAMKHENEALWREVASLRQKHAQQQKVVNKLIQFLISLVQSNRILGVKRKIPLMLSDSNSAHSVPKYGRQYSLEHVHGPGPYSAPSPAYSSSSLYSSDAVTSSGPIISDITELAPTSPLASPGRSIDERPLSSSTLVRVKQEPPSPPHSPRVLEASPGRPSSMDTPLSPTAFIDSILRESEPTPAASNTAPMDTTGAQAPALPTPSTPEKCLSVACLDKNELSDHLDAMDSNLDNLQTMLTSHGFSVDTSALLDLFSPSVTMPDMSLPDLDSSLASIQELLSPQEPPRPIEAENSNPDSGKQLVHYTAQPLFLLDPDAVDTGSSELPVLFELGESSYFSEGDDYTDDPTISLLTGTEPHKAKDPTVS
The test is described as follows: decrease of HSF1-responsive luciferase luminescence – cell-based, NIH3T3, dose retest, confirmation (AID 2382).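 Further: NIH3T3 fibroblasts with HSF1-driven luciferase reporter stressed by proteasome inhibitor MG132; luminescence from HSF1-driven luciferase expression after 8 hours of MG132 stress.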 The format is functional.

Test [2] is described as follows: viability of uninfected HEp-2 cells – cell-based, HTS, cytotoxicity control for RSV inhibitor project, dose response (AID 2410). In kind it is functional. As to conditions: human respiratory syncytial virus.
The test system of test [3] is Streptococcus sp. 'group A'. Nature of the test: Streptococcus pyogenes SK(-)GAS viability under kanamycin – luminescence, BacTiterGlo, confirmation, counter-screen for streptokinase expression inhibitor project, dose response (AID 1900). In kind it is functional, organism-based.
Another test addresses Cytochrome P450 2C9 (Homo sapiens, UniProt P11712).
The next test concerns the target Cytochrome P450 2C19 (Homo sapiens, UniProt P33261). The test is described as follows: Cytochrome panel assay with activity outcomes. Panel member name: p450-cyp2c19 Compounds with AC50 equal or less than 10 uM are considered active. In kind it is functional. Particulars: read-out: AC50.
A further test has as its target T3, Cytochrome P450 1A2 (Homo sapiens, UniProt P05177).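 Further: PubChem cytochrome P450 panel assay, CYP1A2 panel member.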
T3 sequence (P05177 whole entry): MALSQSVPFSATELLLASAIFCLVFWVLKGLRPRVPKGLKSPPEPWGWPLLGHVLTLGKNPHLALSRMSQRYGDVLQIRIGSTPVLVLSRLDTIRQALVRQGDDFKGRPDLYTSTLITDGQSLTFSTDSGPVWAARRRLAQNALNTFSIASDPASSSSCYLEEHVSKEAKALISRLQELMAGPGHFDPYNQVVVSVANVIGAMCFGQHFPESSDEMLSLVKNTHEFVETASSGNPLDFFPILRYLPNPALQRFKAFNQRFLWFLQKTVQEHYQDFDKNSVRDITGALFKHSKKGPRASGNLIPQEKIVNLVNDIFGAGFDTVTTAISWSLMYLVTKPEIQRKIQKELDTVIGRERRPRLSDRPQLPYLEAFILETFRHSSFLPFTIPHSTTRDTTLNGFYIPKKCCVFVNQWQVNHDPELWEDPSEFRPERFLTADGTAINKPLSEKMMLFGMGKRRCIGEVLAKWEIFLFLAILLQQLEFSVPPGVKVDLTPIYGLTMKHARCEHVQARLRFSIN

Sequence of Cytochrome P450 2C9 (P11712 whole entry): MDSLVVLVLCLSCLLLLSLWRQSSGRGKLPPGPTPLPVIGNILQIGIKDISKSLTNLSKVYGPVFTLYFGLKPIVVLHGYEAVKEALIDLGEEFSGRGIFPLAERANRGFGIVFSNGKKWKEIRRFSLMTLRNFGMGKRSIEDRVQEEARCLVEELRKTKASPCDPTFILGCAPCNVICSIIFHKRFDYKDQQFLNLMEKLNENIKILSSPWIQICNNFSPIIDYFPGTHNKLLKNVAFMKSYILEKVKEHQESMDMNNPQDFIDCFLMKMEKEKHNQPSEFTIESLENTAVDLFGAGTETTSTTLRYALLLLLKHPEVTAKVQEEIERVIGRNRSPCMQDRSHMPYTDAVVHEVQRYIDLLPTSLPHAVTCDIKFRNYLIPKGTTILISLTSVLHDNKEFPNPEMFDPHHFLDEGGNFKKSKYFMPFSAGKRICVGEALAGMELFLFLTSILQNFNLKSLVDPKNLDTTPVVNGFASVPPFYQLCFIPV
Sequence of Cytochrome P450 2C19 (P33261 whole entry): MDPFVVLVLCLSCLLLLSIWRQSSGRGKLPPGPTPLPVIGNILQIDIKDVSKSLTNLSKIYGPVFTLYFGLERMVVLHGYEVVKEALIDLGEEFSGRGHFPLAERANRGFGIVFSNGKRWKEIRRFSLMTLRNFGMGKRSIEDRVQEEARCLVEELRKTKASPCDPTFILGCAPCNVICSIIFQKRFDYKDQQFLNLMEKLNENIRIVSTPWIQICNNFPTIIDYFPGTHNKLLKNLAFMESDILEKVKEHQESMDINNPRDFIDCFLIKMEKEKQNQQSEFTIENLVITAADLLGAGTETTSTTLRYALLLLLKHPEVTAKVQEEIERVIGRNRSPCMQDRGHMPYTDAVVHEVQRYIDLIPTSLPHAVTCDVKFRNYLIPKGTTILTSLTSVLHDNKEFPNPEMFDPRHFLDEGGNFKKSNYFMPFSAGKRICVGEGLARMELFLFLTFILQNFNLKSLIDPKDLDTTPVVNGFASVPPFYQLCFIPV

Take `CCOC(=O)N1CCN(C(=O)c2ccc3c(=O)n(CCC4=CCCCC4)c(=S)[nH]c3c2)CC1`: the EC50 with Streptococcus was > 150 µM (not active); at Streptokinase A, 29.8 µM (active).

Turning to `Cc1ccc(N(CC(=O)NCCSCc2ccco2)S(C)(=O)=O)cc1`, the EC50 in test [1] is given as > 195 µM (not active).

Turning to `O=C(NCCC1CCCCN1S(=O)(=O)c1ccc(F)cc1)C(=O)Nc1ccccc1F` (stereo not given), the EC50 in test [1] is listed as > 195 µM (not active).

With `COc1cccc(NC(=S)N(CCc2c(C)[nH]c3ccc(C)cc23)Cc2cccs2)c1`, the CC50 in test [2] is 13.4 µM (active).

As to `Cc1cc(C)cc(NC(=O)N2CCN(Cc3ccc4c(c3)OCO4)CC2)c1`, the EC50 in test [1] was > 195 µM (not active).

As for `CCn1cnc2sc(C(=O)Oc3cccc(C)c3)c(C)c2c1=O`, the EC50 in test [3] is 11.8 µM (active); with Streptococcus, 28.8 µM (active); on Streptokinase A, > 150 µM (not active).

Turning to `Cc1nn(C(C)C(=O)NC2C(=O)N3C(C(=O)O)=C(CSc4nnnn4C)CSC23)cc1Cl` (stereo not given), the half-maximal effective concentration (EC50) in test [3] is 0.112 µM (active); with Streptococcus it was 0.337 µM (active).

Turning to `Cn1c(=O)c2c3c(sc2n2c(SCc4ccccc4)nnc12)CCCC3`, the CC50 in test [2] is > 50 µM (active).

With `COc1ccccc1N1CC(C)C(=O)NC1=S` (stereo not given), in test [1], the EC50 is given as > 195 µM (not active).

For the compound `NCCCC[C@@H](C(=O)N1CCNCC1)n1cc([C@@H](N)CO)nn1`, in test [1], the concentration for a half-maximal effect (EC50) was > 195 µM (not active).

As for `CC(Sc1nc2cc([N+](=O)[O-])ccc2n1-c1cccc(C(F)(F)F)c1)C(=O)NC(N)=O` (stereo not given), the 50% effective concentration (EC50) (in test [3]; with Streptococcus; on Streptokinase A) was > 150 µM (not active) each time.

Take `O=C(Cn1cnc2c(oc3ccccc32)c1=O)NCc1ccco1`: the figures for the AC50 at Cytochrome P450 2C9, on Cytochrome P450 2C19 and on Cytochrome P450 1A2 were 8.91 µM (inconclusive), 20 µM (inconclusive) and 14.1 µM (inconclusive), respectively.

As to `c1ccc2c(c1)CC1(CCCCC1)n1nnnc1-2`, the half-maximal effective concentration (EC50) in test [1] is on record as > 195 µM (not active).

On to `CC1(C)C[C@H](O)[C@]2(CO)CC[C@]3(C)C(=CCC4[C@@]5(C)CC[C@H](O)C(C)(C)C5CC[C@]43C)[C@@H]2C1` (stereo not given in full), for which the cytotoxic concentration (CC50) in test [2] is 36.2 µM (active).

Regarding `CCOC(=O)Cn1c(CN2CCN(c3cccc(Cl)c3)CC2)nc2c1c(=O)[nH]c(=O)n2C`, the EC50 in test [1] was > 195 µM (not active).

Regarding `COC(=O)C1=C(C(=O)OC)[C@@H]2N(C)c3ccccc3[C@@]23C[C@@H](C(=O)OC)N(C(=O)CC(C)C)C3=N1`, the EC50 in test [1] is reported as > 195 µM (not active).

Turning to `COCC(C)NC(=O)c1ccc2nc(-c3ccccc3)c(-c3ccccc3)nc2c1` (stereo not given), in test [1], the EC50 was > 195 µM (not active).

Take `CCN(CC(=O)NCC1CCCO1)S(=O)(=O)c1ccc(Cl)cc1` (stereo not given): the EC50 (in test [3]; with Streptococcus; on Streptokinase A) was > 150 µM (not active) throughout.

As for `CCOC(=O)c1cccc(N2C(N)=NC(N)=NC2(C)C)c1`, the EC50 in test [3] was 0.127 µM (active); with Streptococcus, 0.63 µM (active).

Regarding `CC12CC(c3ccccc3O1)C(C(=O)NCc1ccccc1)C(=O)N2` (stereo not given), the EC50 in test [1] is given as > 195 µM (not active).

In the case of `CCc1ccc(Nc2n[n+](-c3ccccc3)c(-c3ccc(OC)c(Br)c3)s2)cc1`, in test [2], the CC50 was 31.3 µM (active).

Regarding `Cc1cccc(NC(=O)c2ccc(S(=O)(=O)N(C)CC3CCCO3)cc2)c1C` (stereo not given), the EC50 (in test [3]; in the test on Streptococcus; on Streptokinase A) was > 150 µM (not active) in each case.

Regarding `Fc1ccc2nc(Nc3nc4cc5c(cc4s3)OCO5)sc2c1`, the EC50 is 7.04 µM (active) in test [3] and 3.02 µM (active) in the test with Streptococcus.

For `COc1ccccc1Nc1ncnc2c1c(C)c(C)n2CCO`, the CC50 in test [2] is > 50 µM (active).

For the compound `CC1(C)Cc2nc3sc4c(OCc5ccccc5)ncnc4c3cc2CO1`, the values for the EC50 (in test [3]; in the test with Streptococcus; on Streptokinase A) were 4.04 µM (active), 11 µM (active) and > 150 µM (not active), respectively.

In the case of `c1ccc(-n2nnnc2Oc2ccc(-c3nnco3)cc2)cc1`, in test [1], the EC50 is reported as > 195 µM (not active).

As for `Oc1ccccc1CNc1ccc(OC(F)(F)F)cc1`, in test [1], the concentration giving a half-maximal response (EC50) is given as > 195 µM (not active).

For the compound `Cc1ccccc1Nc1nc(N)nc(CN(C)Cc2ccccc2Cl)n1`, the concentration giving a half-maximal response (EC50) (in test [3]; in the test on Streptococcus; on Streptokinase A) was > 150 µM (not active) in each case.

In the case of `COc1cc2c3c(c1)/C(=C1/SC(=S)NC1=O)C(=O)N3C(C)(C)C=C2C`, the half-maximal effective concentration (EC50) in test [3] is 2.63 µM (active); with Streptococcus, 8.28 µM (active); on Streptokinase A it was 1.72 µM (active).

Regarding `O=C(COc1ccc(Cl)cc1)NCc1nnc2c3ccccc3c(-c3ccccc3)nn12`, the CC50 in test [2] was 17.9 µM (active).

Take `COc1ccc(C=O)cc1Cn1ccnc1C`: in test [1], the concentration giving a half-maximal response (EC50) is reported as > 195 µM (not active).

Regarding `Cc1c(C(=O)OCC(=O)N2CC(C)OC(C)C2)oc2ccc(Br)cc12` (stereo not given), in test [1], the half-maximal effective concentration (EC50) is listed as > 195 µM (not active).

Consider `CC(=O)c1cccc(NC(=O)CN2C(=O)c3ccccc3C2=O)c1`, for which the EC50 in test [1] was > 195 µM (not active).

On to `CN1C(=O)/C(=C/c2ccc(C(F)(F)F)cc2)Sc2ccc(C(=O)N3CCN(c4ccccn4)CC3)cc21`, for which the EC50 in test [3] is 1.53 µM (active); with Streptococcus it was 12.5 µM (active); at Streptokinase A, > 150 µM (not active).

In the case of `Cc1ccc(-c2cn(-c3ccccc3)c(S)n2)cc1C`, the concentration giving a half-maximal response (EC50) in test [1] is on record as > 195 µM (not active).

Take `O=S(=O)(c1ccc2c(c1)OCCO2)N1CCC(c2nc(O)c3nnn(Cc4ccc(F)cc4)c3n2)CC1`: in test [2], the CC50 was 37.6 µM (active).

`Cc1nc2c(-c3ccccc3)c(C)nn2c(O)c1Cc1ccccc1`: the EC50 in test [3] is 9.56 µM (active); in the test with Streptococcus it was 18.5 µM (active); at Streptokinase A it was > 50 µM (not active).

With `CCn1c(SCC(=O)Nc2oc(C)c3c(C)nnc(O)c23)nc2sc(C)c(C)c2c1=O`, the EC50 in test [1] is > 195 µM (not active).

Turning to `FC(F)(F)c1ccccc1/C=N/n1c(S)nnc1C1CCCCC1`, the half-maximal effective concentration (EC50) is 8.41 µM (active) in test [3], 15.7 µM (active) in the test with Streptococcus and 32.4 µM (inconclusive) at Streptokinase A.

Consider `CCOC(=O)c1ccc(/N=c2\sc(C(=O)OC)cc(=O)n2Cc2ccc3c(c2)OCO3)cc1`, for which the CC50 in test [2] is 20.8 µM (active).

On to `COc1ccc(CN2C(=O)c3ccccc3C(/C=N\OCc3ccc(C)cc3)C2=O)cc1` (stereo not given), for which the results for the EC50 (in test [3]; with Streptococcus; on Streptokinase A) were 1.67 µM (active), 11.2 µM (active) and > 150 µM (not active), respectively.

For `COc1cc(Cc2cc(N)nc(N)n2)cc(OC)c1OC`, the results for the EC50 (in test [3]; in the test on Streptococcus; at Streptokinase A) were 3.11 µM (active), > 150 µM (not active) and > 150 µM (not active), respectively.

Take `C[C@H](CCC(=O)NCC(=O)O)[C@H]1CC[C@H]2[C@@H]3[C@H](O)C[C@@H]4C[C@H](O)CC[C@]4(C)[C@H]3C[C@H](O)[C@]12C` [GLYCOCHOLIC ACID]: the EC50 (in test [3]; in the test on Streptococcus; at Streptokinase A) was > 150 µM (not active) in each case.

One may read the EC50 as the concentration at which the effect is half-maximal. In general, CC50 refers to the concentration that lowers cell viability or growth by half. One may read the AC50 as the midpoint of the concentration-response curve, whichever way the signal moves.

The record behind these values is ChEMBL document CHEMBL1201862, “PubChem BioAssay data set” (2004).
